What all share (experiment): two-electrode voltage clamp, Xenopus oocytes
Type in all cases: cell-based
For orientation: Two-electrode voltage clamp holds a large cell at a set potential and records current.

Experiment [1] concerns the target T1, UNC-105h (Caenorhabditis elegans, UniProt Q09274).
T1 construct: isoform h cDNA in KSM vector, Xenopus laevis oocytes, homomeric channel (trimer by known biology)
T1 sequence (Q09274 1-887): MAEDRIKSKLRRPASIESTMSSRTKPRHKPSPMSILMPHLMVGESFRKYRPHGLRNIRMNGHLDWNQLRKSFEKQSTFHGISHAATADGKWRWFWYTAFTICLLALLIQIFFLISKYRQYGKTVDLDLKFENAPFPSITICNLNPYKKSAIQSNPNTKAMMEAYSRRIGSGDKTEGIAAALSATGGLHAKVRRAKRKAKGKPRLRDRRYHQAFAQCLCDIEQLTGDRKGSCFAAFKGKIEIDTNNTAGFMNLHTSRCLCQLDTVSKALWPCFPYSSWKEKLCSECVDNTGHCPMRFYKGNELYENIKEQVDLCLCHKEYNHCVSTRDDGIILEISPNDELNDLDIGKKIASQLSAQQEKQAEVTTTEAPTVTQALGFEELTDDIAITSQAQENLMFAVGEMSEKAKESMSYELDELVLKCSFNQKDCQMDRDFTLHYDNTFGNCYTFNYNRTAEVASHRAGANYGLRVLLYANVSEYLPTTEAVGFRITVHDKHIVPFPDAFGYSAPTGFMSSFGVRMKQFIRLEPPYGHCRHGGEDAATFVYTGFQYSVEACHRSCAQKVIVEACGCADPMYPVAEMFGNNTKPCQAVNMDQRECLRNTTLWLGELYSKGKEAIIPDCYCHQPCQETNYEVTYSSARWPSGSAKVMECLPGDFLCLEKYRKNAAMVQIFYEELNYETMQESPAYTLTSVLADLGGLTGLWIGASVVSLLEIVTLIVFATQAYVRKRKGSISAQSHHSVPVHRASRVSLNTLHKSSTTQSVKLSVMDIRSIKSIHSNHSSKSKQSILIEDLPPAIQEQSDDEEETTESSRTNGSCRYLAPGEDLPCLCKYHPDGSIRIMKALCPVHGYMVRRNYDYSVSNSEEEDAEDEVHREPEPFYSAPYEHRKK
Conditions: pH 7.4, -60 mV, ND96, room temperature; second, current-restoring phase of biphasic response; text b54 prints 6.7 µM instead.

Experiment [2] concerns the target T2, ASIC-1 (Caenorhabditis elegans, UniProt O01635).
T2 construct: full-length cDNA in KSM vector, Xenopus laevis oocytes, homomeric channel (trimer by known biology)
T2 sequence (O01635 1-823): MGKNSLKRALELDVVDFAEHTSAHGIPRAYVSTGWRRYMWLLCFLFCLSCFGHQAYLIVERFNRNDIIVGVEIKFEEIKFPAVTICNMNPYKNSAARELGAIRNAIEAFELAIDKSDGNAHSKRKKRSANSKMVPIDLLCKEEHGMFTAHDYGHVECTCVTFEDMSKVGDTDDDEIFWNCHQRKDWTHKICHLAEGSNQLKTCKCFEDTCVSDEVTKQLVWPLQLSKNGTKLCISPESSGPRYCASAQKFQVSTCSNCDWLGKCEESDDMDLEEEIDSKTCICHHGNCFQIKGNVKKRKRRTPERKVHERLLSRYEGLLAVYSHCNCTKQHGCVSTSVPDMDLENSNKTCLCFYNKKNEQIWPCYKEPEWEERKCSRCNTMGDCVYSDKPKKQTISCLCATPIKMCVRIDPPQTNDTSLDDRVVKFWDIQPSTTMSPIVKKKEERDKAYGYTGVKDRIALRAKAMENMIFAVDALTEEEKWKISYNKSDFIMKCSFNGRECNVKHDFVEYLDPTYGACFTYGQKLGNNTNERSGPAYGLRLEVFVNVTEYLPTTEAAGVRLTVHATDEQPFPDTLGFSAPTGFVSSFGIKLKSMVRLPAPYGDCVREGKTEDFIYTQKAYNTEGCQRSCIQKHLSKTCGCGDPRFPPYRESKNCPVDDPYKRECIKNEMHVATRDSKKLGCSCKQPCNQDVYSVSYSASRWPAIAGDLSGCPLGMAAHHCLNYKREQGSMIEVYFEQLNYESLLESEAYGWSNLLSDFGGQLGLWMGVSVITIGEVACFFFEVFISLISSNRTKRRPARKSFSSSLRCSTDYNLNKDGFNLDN

The target of experiment [3] is T1, UNC-105h. Conditions: pH 7.4, -60 mV, ND96, room temperature; paradoxical biphasic response, low-concentration inhibition.

SMILES strings stand for the structures.

As usually defined, the EC50 is the concentration that produces a half-maximal response. Read a low EC50 as higher potency in that assay. Broadly, the IC50 is the concentration that gives 50% inhibition. `N=C(N)NC(=O)c1nc(Cl)c(N)nc1N` [amiloride]: the EC50 in experiment [1] is 5.9 µM. In addition, the figures for the half-maximal inhibitory concentration (IC50) in experiment [2] and in experiment [3] were 108 µM and 0.76 µM, respectively.

Values taken from article PMC10424705, “Physiological insight into the conserved properties of Caenorhabditis elegans acid‐sensing degenerin/epithelial sodium channels” (The Journal of Physiology, 2022).
